Data from patent US11414454B2, “Compositions, methods, and systems for affinity-based protein identification and purification” (Auctus Biologies, Inc., priority 2017, dated 2022).
Residues, ends and D or L forms follow the SMILES beside them. No end group written: not given here.

How the values were obtained:
[1] = target: RPtag (large); experiment: Fluorescence anisotropy Kd of rhodamine labeled RPtag (small) peptides for RPtag (large); type: binding, Thermoanaerobacter tengcongensis; conditions: for Kd: N-terminal rhodamine tagged peptide, unlabeled RPtag (large), 50 mM Tris pH 8.0, 0.005% Tween 20, mean ± SE; for effect of alanine mutation on binding affinity to RPtag(large): alanine scanning versus native
Protocol: 50 nM of RP-Tag Small (see Sequence 3, below) with an N-terminal Rhodamine B label was incubated with increasing concentrations of either RP-Tag Large (see Sequence 2) or Bovine Serum Albumin (BSA) in 50 mM Tris pH 8.0, 150 mM NaCl, 10 mM 2-mercaptoethanol, and 0.005% Tween 20 for 5 min in black 96-well plates at room temperature.
Anisotropy was then measured, and a Kd calculated by fitting the data to the equation f=y0+(ymax−y0)*(Ptot+x+Kd−sqrt((Ptot+x+Kd)^2−4*Ptot*x))/(2*Ptot), where y0 is the baseline anisotropy, ymax is the maximum anisotropy, Ptot is the fixed concentration of labeled peptide used, x is the variable concentration of protein used, and Kd is the measured Kd.
The indicated concentrations of RPtag (large) and an anti-His tag antibody (4E3D10H2/E3 purchased from ThermoFisher Scientific) were incubated with 1 nM rhodamine labeled native RPtag (small) peptide and 6×His peptide (Rhodamine-GHHHHHH), respectively, and fluorescence anisotropy measured. BSA incubated with native rhodamine labeled RPtag(small) is included as a control for non-specific binding. Kd's were calculated according to the equation f=y0+(ymax−y0)*(Ptot+x+Kd−sqrt((Ptot+x+Kd)^2−4*Ptot*x))/(2*Ptot), where y0 is the baseline anisotropy, ymax is the maximum anisotropy, Ptot is the fixed concentration of labeled peptide used, x is the variable concentration of protein used, and Kd is the measured Kd. We measured a Kd of 0.2±0.1 nM for RPtag(large) binding RPtag(small), and a Kd of 6±1 nM for the antibody/6×His tag pair.
Regarding the studies shown in FIG. 14, increasing concentrations of unlabeled RPtag large with the indicated mutations (native, f137d, and f137e) were incubated for 1 h with 1 nM rhodamine labeled RPtag small peptide and the fluorescence anisotropy was measured. Resultant curves were fit with the equation f=y0+(ymax−y0)*(Ptot+x+Kd−sqrt((Ptot+x+Kd)^2−4*Ptot*x))/(2*Ptot), where y0 is the baseline anisotropy, ymax is the maximum anisotropy, Ptot is the fixed concentration of labeled peptide used, x is the variable concentration of protein used, and Kd is the measured Kd. Data are presented here as Ka=1/Kd. Log transformed Ka's were then compared by one-way ANOVA with Holm-Sidak post hoc correction. ***p<0.001, **p<0.01, *p<0.05. data are mean±SEM (n=3-4). Buffer was 50 mM Tris pH 8.0, 0.005% tween20. Proteins were expressed and purified by single step NiNTA chromatography as before. Peptides were synthesized solid-state and handled as previous.

[2] = test system: RPtag (large); experiment: Association/dissociation kinetics of RPtag (small) peptides with RPtag (large) by fluorescence anisotropy; type: binding, Thermoanaerobacter tengcongensis; conditions: for koff: LS dissociation, unlabeled competitor peptide; for kf: S to S* forward rate constant; for kr: S* to S reverse rate constant, calculated from Keq and kf; for kon (M^−1 min^−1 ) (×10^7): S*-LS transition, calculated from measured koff and Kd
Protocol: Panel a depicts representative association rate kinetics traces varying native RPtag small. Rhodamine labeled RPtag small at the indicated concentration was incubated with unlabeled RPtag large and the association measured by fluorescence anisotropy. L-S complex concentration was calculated by the equation (r−rmin)/(rmax−rmin)*[S] where r is the measured anisotropy, rmin is the anisotropy in the absence of any RPtag large, rmax is the anisotropy measured in the presence of at saturating RPtag large, and [S] is the total concentration of RPtag small used in the experiment. […] Dashed cyan lines are simulations of the mechanism shown in f using the rate constants detailed herein. The concentrations in the simulations were multiplied by a correction factor of 0.925, which is well within the 90% purity specification of the purchased peptide.
LS complex was performed by incubating 1000 nM RPtag large with the indicated concentrations of rhodamine labeled RPtag small. At the start of the experiment, 0.1 mM unlabeled native RPtag small was added and fluorescence anisotropy monitored. Data processing was done as in panel a, except the red fits were to the single exponential decay equation y=y0+A*exp(−b*t). As expected, the initial dissociation rates were linear with respect to the LS complex.
Fitting to a line yields a rate constant (koff)=0.0091 min^−1 (FIG. 9 panel e). In good agreement, when the kinetics are fit with a first order rate law, a rate constant of 0.012±0.002 min^−1 (n=15) was observed. […] Panel e is a graph of the initial rates of the traces represented in d. Slope of the fit line is 0.0091 min^−1. Data are mean±SE (n=3).
The library of mutant RPtag(small) peptides, described above, was next analyzed to measure off rates (koff). The on rate was also calculated from measured koff and Kd (S*-LS transition), except instead of using unlabeled native peptide as the competitor, we used unlabeled Nd2,P5A,E18A (the tightest binding RPtag(small) peptide identified). […] However, there were notable exceptions. […] This indicates, without wishing to be limited, that P5 may constrain the structure of the peptide. The increased flexibility imparted to the peptide by the P5A mutation may decrease the energy barrier required for binding/unbinding.

ITKENVQ [Nd14] gave a Kd [1] greater than 100000 nM.
Molecule GEKIPNFIPAE [Cd10] has a Kd [1] greater than 100000 nM.
Work on GEKIPNFIPAEL [Cd9] yielded a Kd [1] greater than 100000 nM.
FIPAELKLITK [Nd6, Cd4, FIPAELKLITK] was tested, and the Kd [1] was 9.9 ± 1.1 nM and the “koff” value [2] was greater than 0.033 s⁻¹.
In the case of GEKIPNFIPAELKLITKENV [Cd1], the Kd [1] is reported as 0.55 ± 0.04 nM, the “koff” value [2] is reported as 0.000102 ± 1e-05 s⁻¹ and the “kf” value [2] is reported as 0.10 ± 0.01 min⁻¹. The “kr” value [2] was 0.042 ± 0.007 min⁻¹ and the “kon (M^−1 min^−1 ) (×10^7)” value [2] was 1.1 ± 0.1 ×10^7 M^−1 min^−1.
GEKIPN [Cd15] showed a Kd [1] greater than 100000 nM.
For GEKIPNFI [Cd13], the Kd [1] was greater than 100000 nM.
AIANFIPAELKLITKANVQ [Nd2, k3a, e18a] was tested, and the Kd [1] was 0.88 ± 0.01 nM, the “koff” value [2] was 0.000533 ± 1.7e-05 s⁻¹ and the “kon (M^−1 min^−1 ) (×10^7)” value [2] was 2.6 ± 0.1 ×10^7 M^−1 min^−1.
For TKENVQ [Nd15], the Kd [1] was greater than 100000 nM.
For CC[C@H](C)[C@H](NC(=O)[C@H](CC(C)C)NC(=O)[C@H](CCCCN)NC(=O)[C@H](CC(C)C)NC(=O)[C@H](CCC(=O)O)NC(=O)[C@H](C)NC(=O)[C@@H]1CCCN1C(=O)[C@@H](NC(=O)[C@H](Cc1ccccc1)NC(=O)[C@H](CC(N)=O)NC(=O)[C@@H]1CCCN1C(=O)[C@@H](NC(=O)[C@H](CCCCN)NC(=O)[C@H](CCC(=O)O)NC(=O)[C@H](C)N)[C@@H](C)CC)[C@@H](C)CC)C(=O)N[C@H](C(=O)N[C@@H](CCCCN)C(=O)N[C@@H](CCC(=O)O)C(=O)N[C@@H](CC(N)=O)C(=O)N[C@H](C(=O)N[C@@H](CCC(N)=O)C(=O)O)C(C)C)[C@@H](C)O [g1a], the Kd [1] was 0.29 ± 0.03 nM, the “koff” value [2] was 7.83e-05 ± 5e-06 s⁻¹ and the “kf” value [2] was 0.086 ± 0.004 min⁻¹. For the same molecule, the “kr” value [2] was 0.037 ± 0.001 min⁻¹ and the “kon (M^−1 min^−1 ) (×10^7)” value [2] was 1.6 ± 0.1 ×10^7 M^−1 min^−1.
CC(C)[C@H](NC(=O)[C@H](CC(N)=O)NC(=O)[C@@H](N)CCC(=O)O)C(=O)N[C@@H](CCC(N)=O)C(=O)O [Nd17, ENVQ] (H-ENVQ-OH; N-terminus and C-terminus assumed) was tested, and the Kd [1] was greater than 100000 nM.
With “GEKIPNFIPAELKLITKENVQ [n19a, RPtag(small) with N19 changed to alanine]” the Kd [1] was 0.26 ± 0.02 nM, the “koff” value [2] was 0.000617 ± 5e-05 s⁻¹ and the “kf” value [2] was 0.089 ± 0.003 min⁻¹. The “kr” value [2] was 0.057 ± 0.008 min⁻¹ and the “kon (M^−1 min^−1 ) (×10^7)” value [2] was 14 ± 1 ×10^7 M^−1 min^−1.
With GEKIPNFIPA [Cd11] the Kd [1] was greater than 100000 nM.
Molecule GEKIPNFIPAELK [Cd8] has a Kd [1] greater than 100000 nM.
In the case of GEKIPNFIPAEAKLITKENVQ [l12a], the “koff” value [2] is reported as 0.00333 ± 0.001 s⁻¹ and the “kon (M^−1 min^−1 ) (×10^7)” value [2] is reported as 4.3 ± 1.2 ×10^7 M^−1 min^−1.
With GEKIPNFIPAELKLITKANVQ [e18a] the “effect of alanine mutation on binding affinity to RPtag(large)” value (from here on “effect of alanine mutation”) [1] was “significantly increased binding affinity”, the “koff” value [2] was 0.000145 ± 6.7e-06 s⁻¹ and the “kon (M^−1 min^−1 ) (×10^7)” value [2] was 16 ± 0.8 ×10^7 M^−1 min^−1.
With GEKIPNF [Cd14] the Kd [1] was greater than 100000 nM.
With GAKIPNFIPAELKLITKENVQ [e2a] the “effect of alanine mutation” value [1] was “significantly increased binding affinity”, the “koff” value [2] was 8.83e-05 ± 1.2e-05 s⁻¹ and the “kon (M^−1 min^−1 ) (×10^7)” value [2] was 5.1 ± 0.7 ×10^7 M^−1 min^−1.
ELKLIT [Nd10, Cd5] was tested, and the “koff” value [2] was greater than 0.033 s⁻¹.
For GEKIANFIPAELKLITKENVQ [p5a], the “koff” value [2] was 0.0004 ± 3.3e-05 s⁻¹.
In the case of GEKIPNFIAAELKLITKENVQ [p9a], the “koff” value [2] is reported as 4e-05 ± 6.7e-06 s⁻¹ and the “kon (M^−1 min^−1 ) (×10^7)” value [2] is reported as 1.4 ± 0.2 ×10^7 M^−1 min^−1.
For KIPNFIPAELKLITKE [Nd2, Cd3], the “koff” value [2] was 0.000767 ± 3.3e-05 s⁻¹ and the “kon (M^−1 min^−1 ) (×10^7)” value [2] was 8.2 ± 0.3 ×10^7 M^−1 min^−1.
EKIPNFIPAELKLITKENVQ [Nd1] was tested, and the “koff” value [2] was 0.000147 ± 1.7e-06 s⁻¹ and the “kon (M^−1 min^−1 ) (×10^7)” value [2] was 3.4 ± 0.1 ×10^7 M^−1 min^−1.
For GEKIPNFIAPELALITKENVQ [k13a], the Kd [1] was 1.1 ± 0.1 nM, the “koff” value [2] was 0.0003 ± 1.7e-05 s⁻¹ and the “kon (M^−1 min^−1 ) (×10^7)” value [2] was 1.7 ± 0.1 ×10^7 M^−1 min^−1.
In the case of IPNFIPAELKLITKENVQ [Nd3], the “koff” value [2] is reported as 0.0002 ± 1.7e-05 s⁻¹ and the “kon (M^−1 min^−1 ) (×10^7)” value [2] is reported as 8.8 ± 0.3 ×10^7 M^−1 min^−1.
With FIPAELKLITKA [Nd6, Cd3, e18a] the “koff” value [2] was greater than 0.033 s⁻¹.
In the case of GEKIP [Cd16], the Kd [1] is reported as greater than 100000 nM.
With “GEKIPNFIPAELKLITKENVQ [q21a, RPtag(small) with Q21 changed to alanine]” the “effect of alanine mutation” value [1] was “significantly increased binding affinity”, the “koff” value [2] was 5.67e-05 ± 5e-06 s⁻¹ and the “kf” value [2] was 0.087 ± 0.005 min⁻¹.
With FIPAELKLITKENVQ [Nd6] the “koff” value [2] was 0.00108 ± 5e-05 s⁻¹ and the “kon (M^−1 min^−1 ) (×10^7)” value [2] was 12 ± 1 ×10^7 M^−1 min^−1.
In the case of KIPNFIPAELKLITK [Nd2, Cd4], the “koff” value [2] is reported as 0.00132 ± 0.0001 s⁻¹ and the “kon (M^−1 min^−1 ) (×10^7)” value [2] is reported as 20 ± 2 ×10^7 M^−1 min^−1.
For PAELKLITKA [Nd8, Cd3, e18a], the “koff” value [2] was greater than 0.033 s⁻¹.
For “GEKIPNFIPAELKLITKENVQ [v20a, RPtag(small) with V20 changed to alanine]”, the Kd [1] was 0.18 ± 0.03 nM, the “koff” value [2] was 0.0002 ± 1.7e-05 s⁻¹ and the “kf” value [2] was 0.073 ± 0.003 min⁻¹. For the same molecule, the “kon (M^−1 min^−1 ) (×10^7)” value [2] was 6.8 ± 0.5 ×10^7 M^−1 min^−1.
In the case of GEKIPNFIPAELKLITAENVQ [k17a], the “koff” value [2] is reported as 9.5e-05 ± 3.3e-06 s⁻¹ and the “kon (M^−1 min^−1 ) (×10^7)” value [2] is reported as 1.0 ± 0.1 ×10^7 M^−1 min^−1.
KENVQ [Nd16] was tested, and the Kd [1] was greater than 100000 nM.
For GEKIPNAIPAELKLITKENVQ [f7a], the “koff” value [2] was 0.00105 ± 5e-05 s⁻¹ and the “kon (M^−1 min^−1 ) (×10^7)” value [2] was 3.1 ± 0.1 ×10^7 M^−1 min^−1.
In the case of AIANFIPAELKLITKENVQ [Nd2, k3a, p5a], the “koff” value [2] is reported as 0.00015 ± 6.7e-06 s⁻¹.
In the case of IANFIPAELKLITKANVQ [Nd3, p5a, e18a], the “koff” value [2] is reported as 0.000967 ± 3.3e-05 s⁻¹ and the “kon (M^−1 min^−1 ) (×10^7)” value [2] is reported as 9.2 ± 0.4 ×10^7 M^−1 min^−1.
